{"source": "patent US20260191874A1", "about": "“FUSED AMINO PYRIMIDINE COMPOUNDS FOR TREATMENT OF AUTISM SPECTRUM DISORDER, OBSESSIVE COMPULSIVE DISORDER AND TICS” (Ovid Therapeutics Inc., priority 2024, published 2026)", "key": {"acute brain slices": {"tested_on": "acute brain slices", "assay": "Acute brain slices exposed to 0-Mg"}, "KCC2-S940A": {"target": "T1, KCC2-S940A (Homo sapiens, UniProt Q9H2X9, S963A)", "T1 construct": "expressed in transfected cells; host or cells: HEK-293", "T1 sequence (Q9H2X9 1-1116 isoform Q9H2X9-2 S940A)": "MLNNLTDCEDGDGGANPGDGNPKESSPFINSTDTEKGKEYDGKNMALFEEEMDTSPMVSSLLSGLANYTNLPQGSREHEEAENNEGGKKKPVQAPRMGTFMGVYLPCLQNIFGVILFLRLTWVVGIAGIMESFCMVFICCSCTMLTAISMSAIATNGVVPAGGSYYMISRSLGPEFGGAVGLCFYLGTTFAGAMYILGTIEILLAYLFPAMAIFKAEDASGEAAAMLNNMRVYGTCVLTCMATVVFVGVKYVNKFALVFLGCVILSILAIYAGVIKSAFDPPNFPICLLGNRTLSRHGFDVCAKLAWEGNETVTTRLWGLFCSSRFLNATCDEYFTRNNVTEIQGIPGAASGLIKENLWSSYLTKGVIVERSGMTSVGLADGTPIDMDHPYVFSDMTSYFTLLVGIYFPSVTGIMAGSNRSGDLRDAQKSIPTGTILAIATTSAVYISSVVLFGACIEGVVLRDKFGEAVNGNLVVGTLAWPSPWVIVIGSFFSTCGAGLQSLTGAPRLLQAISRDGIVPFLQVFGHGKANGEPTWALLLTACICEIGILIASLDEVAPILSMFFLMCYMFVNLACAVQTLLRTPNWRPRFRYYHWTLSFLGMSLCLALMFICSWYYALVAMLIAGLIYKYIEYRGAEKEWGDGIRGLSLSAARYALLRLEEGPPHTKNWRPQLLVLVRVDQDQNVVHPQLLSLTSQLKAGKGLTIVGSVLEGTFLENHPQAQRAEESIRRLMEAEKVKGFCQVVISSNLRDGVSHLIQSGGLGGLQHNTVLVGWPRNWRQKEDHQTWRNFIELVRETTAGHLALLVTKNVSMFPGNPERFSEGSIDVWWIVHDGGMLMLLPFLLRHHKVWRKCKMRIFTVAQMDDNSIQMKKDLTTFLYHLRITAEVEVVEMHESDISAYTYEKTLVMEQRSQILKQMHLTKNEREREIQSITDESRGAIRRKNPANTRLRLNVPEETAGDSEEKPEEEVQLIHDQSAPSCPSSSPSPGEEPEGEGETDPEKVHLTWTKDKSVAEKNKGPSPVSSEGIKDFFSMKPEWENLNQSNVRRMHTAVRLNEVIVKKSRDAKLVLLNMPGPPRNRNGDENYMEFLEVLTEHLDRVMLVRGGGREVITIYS", "assay": "Tl+ flux assay in HEK-293 cells expressing KCC2-S940A", "format": "cell-based", "procedure": "FLIPR TI Flux assay. HEK-293 cells were washed with HBSS, and then incubated with loading buffer containing TI sensitive fluorescent dye (https://www.moleculardevices.com), 20 μM bumetanide 20 μM ouabain and 2.5 mM probenecid for 1 h at room temperature (RT) under control conditions or with drugs in the dark using a FlexStation 3 microplate reader (Molecular Devices) and imaged […] for 30 min. Stimulus buffer was added containing 5 mM K^+/0.5 mM Tl^+ and cells were imaged every 1.5 over a 190 second time course The initial rate Tl^+ uptake (Relative Fluorescence Units (RFU) per second) was determined following addition of the stimulus buffer as outlined previously (Conway et al., 2017, supra) (Lee et al., 2022, supra).\nSeveral studies have shown that the activity and plasma membrane accumulation of KCC2 is potentiated via phosphorylation of S940, a process mediated by the activity of protein kinase C and protein phosphatase 1 (Lee et al., 2011, supra; Lee et al., J Biol Chem 282, 29777-29784 (2007); Moore et al., Proc. Natl. Acad. Sci. U.S.A 115, 10166-10171 (2018); Moore et al., Trends Neurosci. 40, 555-571 (2017); Silayeva et al., Proc. Natl. Acad. Sci. U.S.A 112, 3523-3528 (2015)). […] Compared to KCC2, effects on KCC3, KCC4, and NKCC1 were only seen at concentrations more than 35-fold that of KCC2 (≥100 μM) (FIG. 1G)."}, "[1]": {"assay": "PK studies: brain and plasma levels by LC-MS/MS", "format": "in vivo, mice"}}}
{"smiles": "C[C@@H]1CN(c2nc3c(c(Nc4ccc(C5CCCCC5)cc4)n2)COC3)CCO1", "note": "[Compound A, (R)—N-(4-cyclohexylphenyl)-2-(2-methylmorpholino)-5,7-dihydrofuro[3,4-d]pyrimidin-4-amine]", "values": [{"measurement": "neuronal Cl− accumulation and development of late recurrent discharges (LRDs)", "setting": "acute brain slices", "value": "reduced"}, {"measurement": "activity of KCC2-S940A construct", "setting": "KCC2-S940A", "value": "increased the activity"}, {"measurement": "time by which accumulation in the brain was evident", "setting": "[1]; 25 mg/kg IV bolus, mice", "value": "≤ 30", "unit": "min"}, {"measurement": "time at which accumulation in brain was detected", "setting": "[1]; 50 mg/kg SC", "value": 30, "unit": "min"}, {"measurement": "time of maximal concentration in brain", "setting": "[1]; 50 mg/kg SC", "value": 4, "unit": "h"}]}
